Here are results for 1 compound from patent US11919892B1, “2-(benzo[d]thiazol-2-yl)-N'-(2-(5-(4-chlorophenyl)-1,3,4-oxadiazol-2-ylthio)acetoxy)acetimidamide as an antimicrobial compound” (KING FAISAL UNIVERSITY, priority 2023, dated 2024).

One series concerns Bacillus Cereus. The series is described as follows: Agar plate disc-diffusion, antibacterial, Bacillus cereus. It counts as cell-based. The settings on record: nutrient agar, 37° C., 48 hours. As for the experimental part:
(§1) The agar plate disc-diffusion method was applied. Sterilized filter papers (6 mm in diameter) were wetted with 10 μL of a solution of 2-(benzo[d]thiazol-2-yl)-N′-(2-(5-(4-chlorophenyl)-1, 3,4-oxadiazol-2-ylthio)acetoxy)acetimidamide (3) to be tested, containing 10 mg/mL in DMSO, and the discs were allowed to air dry. The discs were then placed onto the surface of agar plates (nutrient agar for bacteria and Sabouraud's dextrose agar for fungi) seeded with the test organism. Each plate contained 15 mL of the agar medium, previously seeded with 0.2 mL of the broth culture of each organism pregrown for 18 hours. The plates were incubated at 37° C. for 48 hours and 72 hours for fungi. The inhibition zones were measured in mm. Discs impregnated with DMSO were used as a control, and their inhibition zone was subtracted from the tested compound's actual inhibition zone.
A general note: A growth-free zone around the sample is the usual read-out of agar diffusion tests.

A further series deals with Staphylococcus aureus. The series can be described thus: Agar plate disc-diffusion, antibacterial, Staphylococcus aureus. It counts as cell-based. The settings on record: nutrient agar, 37° C., 48 hours. As for the experimental part:
as §1

For the next series, the system named is Pseudomonas aeruginosa. The series is described as follows: Agar plate disc-diffusion, antibacterial, Pseudomonas aeruginosa. It counts as cell-based. The settings on record: nutrient agar, 37° C., 48 hours. As for the experimental part: as §1
For another series, the system named is Escherichia coli. The series can be described thus: Agar plate disc-diffusion, antibacterial, Escherichia coli. The settings on record: nutrient agar, 37° C., 48 hours. It counts as cell-based. Here is the method:
as §1

For the next series, the system named is Aspergillus flavus. The series is described as follows: Agar plate disc-diffusion, antifungal, Aspergillus flavus. It counts as cell-based. The note with it: Sabouraud's dextrose agar, 72 hours. As for the experimental part: as §1
Series [1] has as its system Chrysosporium keratinophilum. The series is described as follows: Agar plate disc-diffusion, antifungal, Chrysosporium keratinophilum. It counts as cell-based. The settings on record: Sabouraud's dextrose agar, 72 hours. Here is the method: as §1
Where [2] appears, read: B = concentration of comp. = 30,000 μL.
Where [3] appears, read: C = concentration of comp. = 50,000 μL.
[4] abbreviates: A = concentration of comp. = 10,000 μL.

A word on the melting point: it is the temperature, or range, at which the solid turns liquid. For `N/C(Cc1nc2ccccc2s1)=N\OC(=O)CSc1nnc(-c2ccc(Cl)cc2)o1` [compound 3, 2-(benzo[d]thiazol-2-yl)-N′-(2-(5-(4-chlorophenyl)-1,3,4-oxadiazol-2-ylthio)acetoxy)acetimidamide], the melting point was 157 to 158 °C. In the series on Bacillus Cereus (A =), the “inhibition zone, Bacillus Cereus, A” value was determined as 25 mm. The “inhibition zone, Bacillus Cereus, B” value with Bacillus Cereus (setting [2]) is on record as 28 mm. Moreover, the “inhibition zone, Bacillus Cereus, C” value in the series with Bacillus Cereus (setting [3]) is on record as 39 mm. The “inhibition zone, Staphylococcus aureus, A” value in the series with Staphylococcus aureus (setting [4]) is given as 33 mm. Also, the “inhibition zone, Staphylococcus aureus, B” value with Staphylococcus aureus (setting [2]) was determined as 40 mm. Also, in the series with Staphylococcus aureus (setting [3]), the “inhibition zone, Staphylococcus aureus, C” value is recorded as 52 mm. For the same compound, the “inhibition zone, Pseudomonas aeruginosa, A” value in the series on Pseudomonas aeruginosa (setting [4]) is given as 23 mm. For the same compound, the “inhibition zone, Pseudomonas aeruginosa, B” value in the series with Pseudomonas aeruginosa (setting [2]) stood at 27 mm. Besides, the “inhibition zone, Pseudomonas aeruginosa, C” value in the series on Pseudomonas aeruginosa (setting [3]) is 43 mm. The “inhibition zone, Escherichia coli, A” value in the series with Escherichia coli (setting [4]) came to 25 mm. For the same compound, the “inhibition zone, Escherichia coli, B” value with Escherichia coli (setting [2]) is given as 34 mm. Also, the “inhibition zone, Escherichia coli, C” value in the series on Escherichia coli (setting [3]) is 47 mm. In the series on Aspergillus flavus (setting [4]), the “inhibition zone, Aspergillus flavus, A” value is on record as 24 mm. Besides, the “inhibition zone, Aspergillus flavus, B” value in the series with Aspergillus flavus (setting [2]) is recorded as 29 mm. Moreover, the “inhibition zone, Aspergillus flavus, C” value in the series with Aspergillus flavus (setting [3]) stood at 41 mm. For the same compound, the “inhibition zone, Chrysosporium keratinophilum, A” value in series [1] (setting [4]) is given as 26 mm. For the same compound, the “inhibition zone, Chrysosporium keratinophilum, B” value in series [1] (setting [2]) is 31 mm. In series [1] (setting [3]), the “inhibition zone, Chrysosporium keratinophilum, C” value is on record as 49 mm.
